Results from patent publication US8378117B2 (priority 2005, dated 2013).
Where “and” joins values, the source holds several entries; their conditions need not be identical. Identical values can stand only once. Like-named read-outs stand apart in the source and are kept apart here.

Legend:
CB1 receptor [1] = target: T1, CB1 receptor (Homo sapiens, UniProt P21554); assay: cell-based
T1 construct: expressed in transfected cells
Procedure, shortened: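 SK-N-MC cells stably co-expressing human CB1 and a CRE-β-galactosidase reporter; forskolin-induced β-gal activity measured after compound treatment, as % of vehicle-treated cells (100%). EC50 by linear regression from concentration series; otherwise % change at a single concentration.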

CB2 receptor [2] = target: T2, CB2 receptor (Homo sapiens, UniProt P34972); assay: Functional cell-based assay, CB2 receptor mediated change in CRE β-gal expression (SK-N-MC cells); conditions: for EC50: SK-N-MC cells
T2 construct: expressed in transfected cells
Excerpt: The CB1 and CB2 receptors are G-protein coupled receptors (GPCR), which influence cell function via the Gi-protein. These receptors modulate the activity of intracellular adenylate cyclase, which in turn produces the intracellular signal messenger cyclic-AMP (cAMP).
At baseline, or during non-ligand bound conditions, these receptors are constitutively active and tonically suppress adenylate cyclase activity. The binding of an agonist causes further receptor activation and produces additional suppression of adenylate cyclase activity. The binding of an inverse agonist inhibits the constitutive activity of the receptors and results in an increase in adenylate cyclase activity.
By monitoring intracellular adenylate cyclase activity, the ability of compounds to act as agonists or inverse agonists can be determined.
Test compounds were evaluated in SK-N-MC cells which, using standard transfection procedures, were stably transfected with human cDNA for pcDNA3-CRE β-gal and pcDNA3 CB1 receptor (human) or pcDNA3 CB2 receptor (human). By expressing CRE β-gal, the cells produced β-galactosidase in response to CRE promoter activation by cAMP. Cells expressing CRE β-gal and either the human CB1 or CB2 receptor will produce less β-galactosidase when treated with a CB1/CB2 agonist and will produce more β-galactosidase when treated with a CB1/CB2 inverse agonist.
The cells were grown in 96-well plates under standard cell culture conditions at 37° C. in a 5% CO2 atmosphere and culture media (wherein the media was supplemented with 2 mM L-glutamine, […] sodium pyruvate, 10% FBS (fetal bovine serum) and antibiotics).
For cells expressing CRE β-gal and the CB2 receptor, CB2 agonists reduced β-galactosidase activity in a dose-dependent manner and CB2 inverse agonists increase β-galactosidase activity in a dose-dependent manner.
The change in forskolin induced β-galactosidase activity was determined by setting a vehicle treated cell's activity value at 100% and expressing the β-galactosidase activity measured in a corresponding compound treated cell as a percent of the vehicle treated cell activity.
The EC50 value for functional activity for compounds tested was calculated by linear regression and was obtained from studies in which varying compound concentrations were used.

CB1 receptor [3] = target: T1, CB1 receptor; assay: Binding assay for CB1 agonists or inverse agonists (SK-N-MC membranes, [3H]-CP-55,940); conditions: for IC50: Cannabinoid CB1 Receptor Binding IC50, calculated by linear regression from percent inhibition at various test concentrations
Procedure, shortened: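 Membranes from SK-N-MC cells stably expressing human CB1 incubated with compound and [3H]-CP-55,940 ([…]) for 90 min at 30° C in Tris-HCl pH 7.5, MgCl2, EDTA, fatty-acid-free BSA. Non-specific binding defined with 10 uM WIN 55,212; filtration, scintillation count; IC50 by linear regression.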

CB2 receptor [4] = target: T2, CB2 receptor; assay: Binding assay for CB2 agonists or inverse agonists (SK-N-MC membranes, [3H]-CP-55,940); conditions: for inhibition at 0.2 µM: read-out: CB2 receptor binding percent inhibition, test concentration 0.2 μM (footnote 2); for IC50: Cannabinoid CB2 Receptor Binding IC50, calculated by linear regression from percent inhibition at various test concentrations
Procedure, shortened: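 Membranes from SK-N-MC cells stably expressing human CB2 were incubated with radioligand and test compounds for 90 min at 30 °C in Tris-HCl buffer, pH 7.5, with MgCl2, EDTA and fatty-acid-free BSA. Filter-bound radioactivity was counted; IC50 was derived by linear regression of percent inhibition.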

[5] = CB1 Receptor Functional Agonist EC50, SK-N-MC cells, forskolin induced β-galactosidase activity
[6] = CB2 Receptor Functional Agonist EC50, forskolin induced β-galactosidase activity
[7] = read-out: CB1 receptor binding percent inhibition, test concentration 0.2 μM (footnote 2)
[8] = CB1 Receptor Functional Inverse Agonist EC50, forskolin induced β-galactosidase activity, SK-N-MC cells

T2 sequence (P34972 whole entry): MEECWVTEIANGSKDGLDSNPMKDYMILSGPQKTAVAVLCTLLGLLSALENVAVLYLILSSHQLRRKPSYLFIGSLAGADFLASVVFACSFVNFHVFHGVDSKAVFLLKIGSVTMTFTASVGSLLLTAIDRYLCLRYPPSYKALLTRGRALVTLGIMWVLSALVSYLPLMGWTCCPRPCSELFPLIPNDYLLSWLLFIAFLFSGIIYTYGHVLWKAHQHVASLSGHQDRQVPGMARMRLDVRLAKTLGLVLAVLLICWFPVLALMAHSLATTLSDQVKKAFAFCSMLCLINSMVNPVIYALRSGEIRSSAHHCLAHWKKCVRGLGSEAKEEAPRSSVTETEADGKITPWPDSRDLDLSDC
T1 sequence (P21554 whole entry): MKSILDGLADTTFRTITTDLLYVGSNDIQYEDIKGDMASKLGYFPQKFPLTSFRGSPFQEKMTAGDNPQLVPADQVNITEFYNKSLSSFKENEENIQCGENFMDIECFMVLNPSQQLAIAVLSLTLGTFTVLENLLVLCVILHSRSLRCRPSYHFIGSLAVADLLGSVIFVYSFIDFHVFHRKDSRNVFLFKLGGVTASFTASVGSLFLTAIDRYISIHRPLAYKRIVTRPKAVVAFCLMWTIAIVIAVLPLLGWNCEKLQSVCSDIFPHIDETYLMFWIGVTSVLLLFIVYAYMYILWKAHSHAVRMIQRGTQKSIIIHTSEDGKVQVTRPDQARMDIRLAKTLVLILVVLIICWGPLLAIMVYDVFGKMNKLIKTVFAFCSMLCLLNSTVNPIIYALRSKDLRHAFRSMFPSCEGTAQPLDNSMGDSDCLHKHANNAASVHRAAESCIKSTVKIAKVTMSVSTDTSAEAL

| Structure (SMILES) | EC50 (CB1 receptor [1]; [5]) [nM] | EC50 (CB2 receptor [2]; [6]) [nM] | IC50 (CB1 receptor [3]) | inhibition at 0.2 µM (CB1 receptor [3]; [7]) [%] | inhibition at 0.2 µM (CB2 receptor [4]) [%] | IC50 (CB2 receptor [4]) [nM] | further results |
| --- | --- | --- | --- | --- | --- | --- | --- |
| COC[C@@H](NC(=O)c1n[nH]c2c1CCCC[C@@H]2Cc1cccc(Cl)c1)c1ccccc1 (stereo in doubt) [Cpd 251, (8R*)-(3-chloro-benzyl)-1,4,5,6,7,8-hexahydro-cycloheptapyrazole-3-carboxylic acid [(1S)-2-methoxy-1-phenyl-ethyl]-amide] | 410 | 3 | – | – | – | – | – |
| COC[C@@H](NC(=O)c1n[nH]c2c1CCCC[C@H]2Cc1cccc(Cl)c1)c1ccccc1 (stereo in doubt) [Cpd 252, (8S*)-(3-chloro-benzyl)-1,4,5,6,7,8-hexahydro-cycloheptapyrazole-3-carboxylic acid [(1S)-2-methoxy-1-phenyl-ethyl]-amide] | > 5000 | 19 | – | – | – | – | – |
| COC[C@H](NC(=O)c1n[nH]c2c1CCCC[C@H]2Cc1cccc(Cl)c1)c1ccccc1 (stereo in doubt) [Cpd 253, (8S*)-(3-chloro-benzyl)-1,4,5,6,7,8-hexahydro-cycloheptapyrazole-3-carboxylic acid [(1R)-2-methoxy-1-phenyl-ethyl]-amide] | > 5000 | 200 | – | – | – | – | – |
| COC[C@H](NC(=O)c1n[nH]c2c1CCCC[C@@H]2Cc1cccc(Cl)c1)c1ccccc1 (stereo in doubt) [Cpd 254, (8R*)-(3-chloro-benzyl)-1,4,5,6,7,8-hexahydro-cycloheptapyrazole-3-carboxylic acid [(1R)-2-methoxy-1-phenyl-ethyl]-amide] | 80 | 2 | – | – | – | – | – |
| C[C@@H](NC(=O)c1n[nH]c2c1CCCC/C2=C\c1ccc(Cl)cc1)c1ccccc1 [Cpd 142, (8E)-8-(4-chloro-benzylidene)-1,4,5,6,7,8-hexahydro-cycloheptapyrazole-3-carboxylic acid [(1R)-1-phenyl-ethyl]-amide] | – | – | 10 nM | – | – | – | inhibition at 0.2 µM (CB1 receptor [3]; read-out: CB1 receptor binding percent inhibition): 83%; CB2 receptor binding percent inhibition (CB2 receptor [4]; test concentration 0.2 μM (footnote 2)): ^(2)98%; CB2 receptor change in functional activity (CB2 receptor [2]; one compound concentration, forskolin induced β-galactosidase activity): 1% |
| CC(NC(=O)c1nn(-c2ccc(Cl)cc2Cl)c2c1CCCC/C2=C\c1ccc(F)cc1)c1ccccn1 (centres unmarked) [Cpd 224, (8E)-1-(2,4-dichloro-phenyl)-8-(4-fluoro-benzylidene)-1,4,5,6,7,8-hexahydro-cycloheptapyrazole-3-carboxylic acid (1-pyridin-2-yl-ethyl)-amide] | – | – | 8 nM | 87 | 4 | – | EC50 (CB1 receptor [1]; [8]): 4 nM |
| C[C@@H](NC(=O)c1nn(-c2ccc(Cl)cc2Cl)c2c1CCCC/C2=C\c1ccc(F)cc1)c1ccccn1 [Cpd 225, (8E)-1-(2,4-dichloro-phenyl)-8-(4-fluoro-benzylidene)-1,4,5,6,7,8-hexahydro-cycloheptapyrazole-3-carboxylic acid [(1R)-1-pyridin-2-yl-ethyl]-amide] | – | – | 5 nM and 6 nM and 7 nM | 90 | 6 | – | CB1 receptor binding percent inhibition (CB1 receptor [3]; test concentration 0.2 μM (footnote 2), 0.2 µM): 89%; CB1 receptor binding average percent inhibition (CB1 receptor [3]; value shown is an average percent inhibition (footnote 5), concentration not given): 96%; inhibition at 1 µM (CB2 receptor [4]; read-out: CB2 receptor binding percent inhibition, test concentration 1 μM (footnote 1)): 16%; EC50 (CB1 receptor [1]; [8]): 1 nM |
| COc1ccc(/C=C2\CCCCc3c(C(=O)NN4CC5CCCC5C4)nn(-c4ccc(Cl)cc4Cl)c32)cc1 (centres unmarked) [Cpd 226, (8E)-1-(2,4-dichloro-phenyl)-8-(4-methoxy-benzylidene)-1,4,5,6,7,8-hexahydro-cycloheptapyrazole-3-carboxylic acid (hexahydro-cyclopenta[c]pyrrol-2-yl)-amide] | – | – | 40 nM | 72 | 48 | – | EC50 (CB1 receptor [1]; [8]): 3 nM |
| COc1ccc(/C=C2\CCCCc3c(C(=O)N[C@H](C)c4ccccn4)nn(-c4ccc(Cl)cc4Cl)c32)cc1 [Cpd 227, (8E)-1-(2,4-dichloro-phenyl)-8-(4-methoxy-benzylidene)-1,4,5,6,7,8-hexahydro-cycloheptapyrazole-3-carboxylic acid [(1R)-1-pyridin-2-yl-ethyl)-amide] | – | – | 9 nM | 90 | 19 | – | EC50 (CB1 receptor [1]; [8]): 2 nM |
| O=C(N[C@@H](CO)c1ccccc1)c1n[nH]c2c1CCCC/C2=C\c1ccc(Cl)cc1 [Cpd 234, (8E)-8-(4-chloro-benzylidene)-1,4,5,6,7,8-hexahydro-cycloheptapyrazole-3-carboxylic acid [(1R)-2-hydroxy-1-phenyl-ethyl]-amide] | 8 | 5 | 20 nM | 87 | 93 | 60 | – |
| COC(=O)[C@H](Cc1ccc(F)cc1)NC(=O)c1n[nH]c2c1CCCC/C2=C\c1ccc(Cl)cc1 [Cpd 238, (8E)-(2S)-2-{[8-(4-chloro-benzylidene)-1,4,5,6,7,8-hexahydro-cycloheptapyrazole-3-carbonyl]-amino}-3-(4-fluoro-phenyl)-propionic acid methyl ester] | 150 | 1 | 30 nM | 85 | 93 | 10 | – |
| O=C(N[C@@H](CO)c1ccccc1)c1n[nH]c2c1CCCC/C2=C\c1cccc(Cl)c1 [Cpd 239, (8E)-8-(3-chloro-benzylidene)-1,4,5,6,7,8-hexahydro-cycloheptapyrazole-3-carboxylic acid [(1R)-2-hydroxy-1-phenyl-ethyl]-amide] | 20 | 0.6 | 30 nM | 80 | 91 | 20 | – |
| COC(=O)[C@H](Cc1ccc(F)cc1)NC(=O)c1n[nH]c2c1CCCC/C2=C\c1cccc(Cl)c1 [Cpd 240, (8E)-(2S)-2-{[8-(3-chloro-benzylidene)-1,4,5,6,7,8-hexahydro-cycloheptapyrazole-3-carbonyl]-amino}-3-(4-fluoro-phenyl)-propionic acid methyl ester] | 1600 | 13 | 200 nM | 35 | 78 | 40 | – |
| COC(=O)[C@H](Cc1ccc(F)cc1)NC(=O)c1nn(C)c2c1CCCC/C2=C\c1cccc(F)c1 [Cpd 241, (8E)-(2S)-2-{[8-(3-fluoro-benzylidene)-1-methyl-1,4,5,6,7,8-hexahydro-cycloheptapyrazole-3-carbonyl]-amino}-3-(4-fluoro-phenyl)-propionic acid methyl ester] | 2800 | 18 | 200 nM | 33 | 62 | 100 | – |
| Cn1nc(C(=O)N[C@H](CCO)c2ccccc2)c2c1/C(=C/c1cccc(F)c1)CCCC2 [Cpd 249, (8E)-8-(3-fluoro-benzylidene)-1-methyl-1,4,5,6,7,8-hexahydro-cycloheptapyrazole-3-carboxylic acid [(1R)-3-hydroxy-1-phenyl-propyl]-amide] | > 5000 | 47 | – | – | – | – | – |
| O=C(N[C@H](CCO)c1ccccc1)c1n[nH]c2c1CCCC/C2=C\c1cccc(Cl)c1 [Cpd 250, (8E)-8-(3-chloro-benzylidene)-1,4,5,6,7,8-hexahydro-cycloheptapyrazole-3-carboxylic acid [(1R)-3-hydroxy-1-phenyl-propyl]-amide] | – | – | – | – | – | – | EC50 (CB1 receptor [1]; SK-N-MC cells, forskolin induced β-galactosidase activity, read-out: CB1 Receptor Functional Agonist EC50): > 5000 nM; EC50 (CB2 receptor [2]; forskolin induced β-galactosidase activity, read-out: CB2 Receptor Functional Agonist EC50): 130 nM |
